Laboratory results published in publication PMC8406801, “Naringenin Inhibits Platelet Activation and Arterial Thrombosis Through Inhibition of Phosphoinositide 3-Kinase and Cyclic Nucleotide Signaling” (Frontiers in Pharmacology, 2021).
Several values for one entry are separate records, joined by “and”; a condition that tells them apart may be missing. Identical values can stand only once.

Assays:
[1] = system: carotid arterial thrombus; test: FeCl3-induced carotid arterial thrombus model in rats; type: in vivo, rat; conditions: for Occlusion time: 10% FeCl3, single animals, no occlusion within 20 min recorded as 20 min
Method: To determine the effects of naringenin on thrombogenesis, a FeCl3-induced carotid arterial thrombus model was performed as reported previously with some modifications ([Eckly et al., 2011]). […] The rats were anaesthetized using 1% pentobarbital sodium salt and fixed supinely after the last administration. The left carotid artery was exposed and thrombosis was induced by applying a Whatman filter paper (5 mm × 1 mm) saturated with 10% (w/v) FeCl3 on the top of the left carotid artery for 5 min. […] Time to occlusion of the carotid artery was defined as a blood flow of 0 ml/min for 3 min. […] At the end of the experiment, the left carotid artery was dissected. A haematoxylin and eosin stain was performed on the artery.

PI3Kp110β = test: Ex vivo immunoblotting of PI3Kp110β in ADP-stimulated PRP of treated rats; set-up: species or system rat; conditions: for PI3Kp110β / GAPDH (Fold to Control) / PI3Kp110β / GAPDH (raw data): ex vivo, Figure 8B
Method: Male SD rats were randomly divided into 5 groups with 6 rats in each group. […] Sixty minutes after the last sample treatment, blood was drawn from the abdominal aorta of rats into the siliconized vacutainers containing 1:9 (v/v) 3.8% sodium citrate. The collected blood was centrifuged at 100 × g for 10 min at room temperature to obtain PRP. […] The platelet counts of PRP were adjusted to 4×10^8 cells/mL using PPP. PRP was incubated for 5 min at 37°C and then stimulated by ADP (5 μM). The maximum platelet aggregation rate was determined as mentioned above.
(§1) For in vitro platelet aggregation, aliquots of washed platelets were preincubated with vehicle or various concentrations of naringenin for 5 min and stimulated with ADP (10 μmol/L) under stirring at 37°C for 5 min. For ex vivo platelet aggregation, PRP was incubated at 37°C for 5 min and stimulated with ADP (5 μmol/L) under stirring at 37 °C. The platelet aggregation was terminated by adding ethylenediaminetetraacetic acid (EDTA; 10 mM). Total protein was prepared using RIPA lysis buffer and protein content was determined by bicinchoninic acid (BCA) protein assay kit. Equal amounts of platelet proteins (30 μg) were separated on 10% SDS polyacrylamide gel electrophoresis (SDS-PAGE) and then transferred to poly vinylidene difluoride (PVDF) membranes and subjected to western blot. Blots were blocked with TBS-Tween 20 containing 5% BSA and probed with primary antibodies diluted in blocking solution at 4°C overnight followed by incubation with the corresponding HRP secondary antibodies. The protein bands were visualized using enhanced chemiluminescence (ECL).
Blood was collected and PRP was obtained after the last treatment. Platelet aggregation was induced by ADP (5 μmol/L) (A). Data are expressed as means ± SD (n = 6). After ADP stimulation, platelet proteins were then extracted and analyzed by immunoblotting using PI3Kp110β antibody (B) and phospho-specific antibodies such as Akt^Ser473 (C), Akt^Thr308 (D) and ERK1/2^Thr202/Tyr204 (E). Total level of GAPDH was measured on each sample as a loading control. The blots shown are representative of three separate experiments. The relative protein expression levels were quantified by ImageJ 1.47v software. The level of relative protein expression obtained with vehicle control was taken as 1. R represents the level of relative protein expression in resting platelets. Data are expressed as means ± SD (n = 3). *p < 0.05, **p < 0.01, ***p < 0.001 compared with the vehicle control group (Con).
To further investigate the antiplatelet mechanisms of naringenin ex vivo, several signaling molecules such as PI3Kp110β, Akt and ERK were detected. After oral administration of naringenin (200, 400, and 800 mg/kg) to rats for 7 days, rat PRP was prepared and stimulated by ADP (5 μmol/L), and platelets were lysed to determine protein phosphorylation levels using western blot.

[2] = system: VASP Ser157 phosphorylation; test: Immunoblotting of phospho-VASP (Ser157) in ADP-stimulated washed platelets; type: cell-based, rat; conditions: for p-VASP(Ser157) / GAPDH (Fold to ADP only) / p-VASP(Ser157) / GAPDH (raw data): ADP-stimulated, Figure 7B
Method: as §1
VASP is a substrate for cAMP- and cGMP- dependent protein kinases, which mediate cAMP- and cGMP-dependent inhibitory signaling in platelets, respectively. Increased cAMP levels followed by the activation of cAMP-dependent protein kinase A (PKA) phosphorylates VASP at position Ser157, whereas the elevation of cGMP leads to VASP phosphorylation at position Ser239 by cGMP-dependent protein kinase G (PKG) ([Aszódi et al., 1999]; [Li et al., 2003a]). To further examine whether naringenin modulates cAMP- or cGMP-mediated inhibitory signaling, the phosphorylation of VASP (Ser157 and Ser239) in washed platelets on stimulation with ADP were measured in the absence or presence of naringenin (100, 200, 400, and 800 μM). […] To further confirm the antiplatelet effects of naringenin through PKA-dependent signaling, the effects of naringenin on platelet aggregation were measured in the presence of PKG inhibitor (Rp-8-Br-PET-cGMPS) and PKA inhibitor (H89).
FIGURE 7 Naringenin promotes VASP phosphorylation. The effects of naringenin on phosphorylation of VASP (at positions Ser 157 and Ser239) were measured in washed platelets upon stimulation with ADP (10 μmol/L) by western blotting (A). The blots shown are representative of three separate experiments. The phosphorylation levels were quantified by ImageJ 1.47v software. The level of phosphorylation obtained with vehicle control (0 μM) was taken as 1 (B,C). R represents the phosphorylation level in resting platelets. Data are expressed as means ± SD (n = 3). *p < 0.05, ***p < 0.001 compared with the vehicle control group. VASP phosphorylation at Ser239 was also analyzed in washed platelets incubated with 5 μmol/L PKA (H89), 30 μmol/L PKG (Rp-8-Br-PET-cGMPS), or 5 μmol/L PKC (GF109203X) inhibitors before treatment with naringenin (D). Washed platelets were incubated with vehicle or naringenin (200 μmol/L) at 37°C in the presence or absence of 5 μmol/L PKA (H89) or 30 μmol/L PKG (Rp-8-Br-PET-cGMPS) inhibitors. After treatment, platelets were stimulated with ADP (10 μmol/L) to trigger aggregation (E). Data are expressed as means ± SD (n = 6). ***p < 0.001 compared with the ADP-treated group, ^# p < 0.05, ^### p < 0.001 compared with naringenin alone or H89 alone.

O=C1C[C@@H](c2ccc(O)cc2)Oc2cc(O)cc(O)c21 [Naringenin]
H&E-stained carotid artery: thrombus formation and vascular endothelial injury ([1]; naringenin pretreatment, 10% FeCl3): diminish thrombus formation and protect against vascular endothelial injury
Occlusion time ([1]; oral 200 mg/kg for 7 days, 200 mg/kg): 7.5 min and 11.3 min and 8.5 min and 8.0 min and 9.5 min and 10.3 min
Occlusion time ([1]; oral 400 mg/kg for 7 days, 400 mg/kg): 11.0 min and 10.5 min and 13.0 min and 14.0 min and 15.0 min
10% FeCl3-thrombus formation (time to vessel occlusion) ([1]; oral 800 mg/kg for 7 days): markedly attenuated
Occlusion time ([1]; oral 800 mg/kg for 7 days, 800 mg/kg): 13.3 min and 15.3 min and 20.0 min and 18.0 min
10% FeCl3-thrombus formation (time to vessel occlusion) ([1]; oral 200 and 400 mg/kg for 7 days): less inhibition
PI3Kp110β / GAPDH (Fold to Control) (PI3Kp110β; naringenin 200mg/kg): 0.9111 and 0.9256 and 1.0697
PI3Kp110β / GAPDH (raw data) (PI3Kp110β; naringenin 200mg/kg): 0.4465 and 0.4536 and 0.5241
PI3Kp110β / GAPDH (Fold to Control) (PI3Kp110β; naringenin 400mg/kg): 0.7818 and 0.8725 and 1.0518
PI3Kp110β / GAPDH (raw data) (PI3Kp110β; naringenin 400mg/kg): 0.3831 and 0.4275 and 0.5154
PI3Kp110β / GAPDH (Fold to Control) (PI3Kp110β; naringenin 800mg/kg): 0.6930 and 0.8263 and 0.7645
PI3Kp110β / GAPDH (raw data) (PI3Kp110β; naringenin 800mg/kg): 0.3396 and 0.4049 and 0.3746
expression of PI3Kp110β in rat PRP ex vivo (PI3Kp110β; rats, oral 200, 400, and 800 mg/kg for 7 days, ADP 5 μmol/L): only modest changes
phosphorylation of VASP at Ser157 ([2]; ADP-stimulated washed platelets, 100, 200, 400, and 800 μM): did not significantly alter
p-VASP(Ser157) / GAPDH (Fold to ADP only) ([2]; naringenin 200 μM): 1.6152 and 1.1716 and 1.5055
p-VASP(Ser157) / GAPDH (raw data) ([2]; naringenin 200 μM): 0.7758 and 0.5628 and 0.7232
p-VASP(Ser157) / GAPDH (Fold to ADP only) ([2]; naringenin 400 μM): 1.6752 and 1.3720 and 1.0597
p-VASP(Ser157) / GAPDH (raw data) ([2]; naringenin 400 μM): 0.8047 and 0.6590 and 0.5090
p-VASP(Ser157) / GAPDH (Fold to ADP only) ([2]; naringenin 800 μM): 1.6695 and 1.5145 and 1.3641
p-VASP(Ser157) / GAPDH (raw data) ([2]; naringenin 800 μM): 0.8019 and 0.7275 and 0.6552
